How the values were obtained:
[1] = tested on: HCT116 xenograft; assay: Tumor-inhibiting effect on HCT116 xenograft tumor-bearing mice (Experimental Example 5); type: in vivo, Balb/c nude mice; settings: QD × 14 day, free form; for TGI: from tumor weight
Description: HCT116 cells were cultured in McCoy's 5a culture medium containing inactivated 10% fetal bovine serum, 100 Um′ penicillin and 100 μg/ml streptomycin as well as 2 mM glutamine in an incubator at 37° C., 5% CO2. During cell culture, the initial concentration was 5×10^5 cells/ml, and the cells were separated into other bottles every 3 to 4 days when the cells reached a cell density of 100%. The tumor cells in logarithmic growth phase were used in tumor inoculation in vivo.
Balb/c nude mice was inoculated subcutaneously at right lateral thorax with HCT116 tumor cells re-suspended in PBS at 1.0×10^7 cells/0.1 ml. When the tumor grew into a volume of 800 mm^3, the animal was sacrificed and under aseptic conditions, tumor was peeled off. The well grown tumor tissues were cut into tumor mass with a size of 2×2×2 mm^3, and then were used to inoculate animal at right lateral thorax subcutaneously. 60 animals were inoculated. When the tumor grew into a volume of about 110 mm^3, the mice were grouped and administered, 5 groups in total, 8 mice per group.
The volume of tumor was measured by using Vernier caliper twice a week. The long diameter and short diameter of tumor were measured. The volume was calculated by the formula: volume=0.5× long diameter×short diameter^2. After the final measurement, the animal was sacrificed and the tumor was peeled off and weighed. Based on the tumor weight, tumor growth-inhibiting rate (TGI) was calculated. […] When the assay was finished, the experimental animal was subjected to euthanasia.

[2] = tested on: human colon cancer HCT-116 transplantation; assay: Effect on tumor weight of human colon cancer HCT-116 transplantation nude mice (Comparative Experiment Example 2); type: in vivo; settings: QD × 17 day, sorafenib as p-toluenesulfonate, FD-1210005 free form
Excerpt: Comparative Experiment Example 2
Under aseptic conditions, the well grown human HCT-116 cell suspension in logarithmic growth phase was used to inoculate nude mouse at axillary cavity of right forelimb subcutaneously via an injector. The tumor growth state was observed regularly until the tumor grew to a volume of 100˜300 mm^3.
48 Tumor-bearing mice with a tumor volume of 100˜300 mm^3 were selected and divided into 6 groups, which were 1 solvent control group, 3 positive control groups, and 2 test sample groups. Both the positive control group and the test sample group were administered intragastrically once a day; the solvent control group was administered with 12.5% ethanol & 12.5% water solution of polyoxyethylene castor oil once a day; intragastrical volume was 10 mL/kg.
In the period of administration, tumor diameter was measured twice every week, tumor volume was calculated, and animal body weight was recorded. Animal state was observed when administered, and abnormal state was recorded.
Animal was sacrificed with CO2, and tumor mass was peeled off, weighed, and photographed. After photographed, each tumor mass was cut into two parts, wherein one was stored in 4% paraformaldehyde, and the other was packaged into a freezing tube, and frozen in liquid nitrogen. Animal was subjected to gross anatomy, and organs were observed by eyes to find if they were normal or not.
Observation Indexes: Tumor weight inhibiting rate (IR)=(WC−WT)/WC
wherein WC and WT represented the average tumor weight of solvent control group and the average tumor weight of drug administration group, respectively.
Experimental data was subjected to calculation and relevant statistic processing by Microsoft Office Excel 2003 software. Unless otherwise specified, data was represented as Mean±Standard Error (Mean±S.E.), and t-test is used in the comparison between two groups.

Cn1cc(-c2nccc(Oc3ccc(NC(=O)Nc4ccc(Cl)c(C(F)(F)F)c4)cc3)c2Cl)cn1 [Example 2, 1-(4-chloro-3-(trifluoromethyl)phenyl)-3-(4-(3-chloro-2-(1-methyl-pyrazol-4-yl)-pyridin-4-yl-oxy)phenyl)urea]
Tumor weight (D27) Mean ± S.E ([1]; 10 mg/kg po): 0.153 ± 0.078 g
TGI ([1]; 10 mg/kg po): 84.1%
Tumor weight (D27) Mean ± S.E ([1]; 20 mg/kg po): 0.104 ± 0.035 g
TGI ([1]; 20 mg/kg po): 89.1%
Tumor weight (D27) Mean ± S.E ([1]; 40 mg/kg po): 0.077 ± 0.043 g
TGI ([1]; 40 mg/kg po): 92%
TGI ([1]; 40 mg/kg po, listed as FD-2013018): 92.0%

CNC(=O)c1cc(Oc2ccc(NC(=O)Nc3ccc(Cl)c(C(F)(F)F)c3)cc2)ccn1 [Comparative example 1, Sorafenib, reference compound]
Tumor weight Mean ± S.E ([2]; 20 mg/kg Ig): 0.5628 ± 0.0617 g
Tumor-inhibiting rate ([2]; 20 mg/kg Ig): 43.28%
Tumor weight Mean ± S.E ([2]; 60 mg/kg Ig): 0.4409 ± 0.0857 g
Tumor-inhibiting rate ([2]; 60 mg/kg Ig): 55.57%

From patent publication US9902709B2, “Polysubstituted pyridine compound, preparation method, use and pharmaceutical composition” (PEKING UNIVERSITY FOUNDER GROUP CO., LTD., priority 2014, dated 2018)
